Tests used:
mTOR = target: T1, mTOR (Homo sapiens, UniProt P42345); experiment: mTOR kinobeads assay (Jurkat cell lysate, dot blot detection); type: binding; settings: read-out: Inhibition values (IC50) mTor
T1 construct: Jurkat cells were homogenized in a Potter S homogenizer in lysis buffer; endogenous in cells; host or cells: Jurkat, clone E6-1 (ATCC TIB-152) lysate
Procedure: (§1) The compounds of the present invention as described were tested in the mTOR kinobeads assay as described below. Briefly, test compounds (at various concentrations) and the affinity matrix (1:1 mixture of beads with immobilized phenylthiazole ligand 1 and beads with immobilized phenylmorpholin-chromen ligand; WO 2009/098021) were added to cell lysate aliquots and allowed to bind to the proteins in the lysate sample. After the incubation time the beads with captured proteins were separated from the lysate. Bound proteins were then eluted and the presence of mTOR, PI3K alpha (PI3Kα), PI3K beta (PI3Kb), PI3K gamma (PI3Kg), PI3K delta (PI3Kd) and DNA-dependent protein kinase (DNA-PK) was detected and quantified using a specific antibody in a dot blot procedure and the Odyssey infrared detection system. Dose response curves for individual kinases were generated and IC50 values calculated. Kinobeads assays for PI3 kinases (WO-A 2008/015013) and for kinase selectivity profiling (WO 2009/098021) have been previously described.
(§2) The affinity matrix (beads with immobilized phenylmorpholin-chromen ligand) was washed three times with 15 ml of 1×DP buffer containing 0.2% NP40 (IGEPAL® CA-630, Sigma, #13021) and then resuspended in 5.5 ml of 1×DP buffer containing 0.2% NP40 (10% beads slurry).
(§3) 5×DP buffer: 250 mM Tris-HCl pH 7.4, 25% Glycerol, 7.5 mM MgCl2, 750 mM NaCl, 5 mM Na3VO4, filter the 5×-lysis buffer through 0.22 μm filter and store in aliquots at −80° C. The 5×DP buffer is diluted to 1×DP buffer containing 1 mM DTT and 25 mM NaF.
(§4) Stock solutions of test compounds were prepared in DMSO. In a 96 well plate 30 μl solution of diluted test compounds at 5 mM in DMSO were prepared. Starting with this solution a 1:3 dilution series (9 steps) was prepared. For control experiments (no test compound) a buffer containing 2% DMSO was used. Compound PI-103 served as a positive control (Calbiochem catalogue number 528100).
(§5) Jurkat cells (ATCC catalogue number TIB-152 Jurkat, clone E6-1) were grown in 1 liter Spinner flasks (Integra Biosciences, #182101) in suspension in RPMI 1640 medium (Invitrogen, #21875-034) supplemented with 10% Fetal Bovine Serum (Invitrogen) at a density between 0.15×10^6 and 1.2×10^6 cells/ml. Cells were harvested by centrifugation, washed once with 1×PBS buffer (Invitrogen, #14190-094) and cell pellets were frozen in liquid nitrogen and subsequently stored at −80° C.
(§6) Jurkat cells were homogenized in a Potter S homogenizer in lysis buffer: 50 mM Tris-HCl, 0.8% NP40, 5% glycerol, 150 mM NaCl, 1.5 mM MgCl2, 25 mM NaF, 1 mM sodium vanadate, 1 mM DTT, pH 7.5. One complete EDTA-free tablet (protease inhibitor cocktail, Roche Diagnostics, 1873580) per 25 ml buffer was added. The material was dounced 10 times using a mechanized POTTER S, transferred to 50 ml falcon tubes, incubated for 30 minutes on ice and spun down for 10 min at 20,000 g at 4° C. (10,000 rpm in Sorvall SLA600, precooled). The supernatant was transferred to an ultracentrifuge (UZ)-polycarbonate tube (Beckmann, 355654) and spun for 1 hour at 100.000 g at 4° C. (33.500 rpm in Ti50.2, precooled). The supernatant was transferred again to a fresh 50 ml falcon tube, the protein concentration was determined by a Bradford assay (BioRad) and samples containing 50 mg of protein per aliquot were prepared. The samples were immediately used for experiments or frozen in liquid nitrogen and stored frozen at −80° C.
(§7) Jurkat cell lysate (approximately 50 mg protein per plate) was thawed in a water bath at room temperature and then kept on ice. To the thawed cell lysate 1×DP 0.8% NP40 buffer containing protease inhibitors (1 tablet for 25 ml buffer; EDTA-free protease inhibitor cocktail; Roche Diagnostics 1873580) was added in order to reach a final protein concentration of 5 mg/ml total protein. The diluted cell lysate was stored on ice. […]

PI3K alpha (PI3Kα) = target: T2, PI3K alpha (PI3Kα) (Homo sapiens, UniProt P42336); experiment: kinobeads assay, PI3K alpha; type: binding; settings: Jurkat cell lysate, read-out: Inhibition values (IC50) PI3Ka
T2 construct: Jurkat cells were homogenized in a Potter S homogenizer in lysis buffer; endogenous in cells; host or cells: Jurkat, clone E6-1 (ATCC TIB-152) lysate
Procedure: as §1, §2, §3, §4, §5, §6, §7

[1] = target: T3, DNA-dependent protein kinase (DNA-PK) (Homo sapiens, UniProt P78527); experiment: kinobeads assay, DNA-PK; type: binding; settings: Jurkat cell lysate, read-out: Inhibition values (IC50) DNA-PK
T3 construct: Jurkat cells were homogenized in a Potter S homogenizer in lysis buffer; endogenous in cells; host or cells: Jurkat, clone E6-1 (ATCC TIB-152) lysate
Procedure: as §1, §2, §3, §4, §5, §6, §7

[2] = test system: S6RP serine-240/244 phosphorylation; experiment: In vitro phospho-S6 cellular assay (HEK293T/17); type: cell-based; settings: Homo sapiens; HEK293T/17 cells, 2 hours, pS6RP Ser240/244; read-out: Inhibition values (IC50) pS6
Description: Activation of mTOR signaling results in phosphorylation of several downstream targets. In cells, mTOR exists in two different protein complexes. The mTOR Complex-1 (mTORC1) phosphorylates and activates S6 Kinase 1 (S6K1) and S6 Kinase 2 (S6K2) (also known as p70S6K) which then phosphorylate S6 Ribosomal Protein (S6RP) (also known as RPS6)3. S6RP is phosphorylated on serine 235, senile 236, serine 240 and serine 244 by both pS6K1 and pS6K2. The mTOR Complex-2 (mTORC2) phosphorylates AKT on serine 473 which activates the AKT signaling pathway.
The assay measures a test compound's inhibition of S6RP serine-240/244 phosphorylation and inhibition of Akt serine-473 phosphorylation in human embryonic kidney derived HEK293T/17 cells (ATCC CRL-11268).
The HEK293T/17 cell line is maintained in DMEM media (Invitrogen catalogue number 41965-039) supplemented with 10% FCS at 37° C. in a 5% CO2 humidified incubator. Cells are seeded in 96-well plates at 40,000 cells/well (pS6RP S240/244 assay) or 80,000 cells/well (pAkt 5473 assay) in 90 μl growth media (DMEM, 2% FCS). Plates are incubated for 1 hour in a humidified incubator to allow the cells to adhere. Cells are treated with 8 concentrations of test compounds or DMSO alone for controls (final DMSO concentration 0.1%) and incubated at 37° C. for 2 hours. Then 20 μl of 5× concentrated lysis buffer (750 mM NaCl, 100 mM Tris pH7.4, 5 mM ADTA, 5 mM EGTA, 5% Triton X-100) is added, plates are sealed and incubated for 15 minutes at 4° C. with gentle shaking After cell lysis, 25 μl cell lysate is transferred to a MesoScale plate coated with an antibody to pS6RP Ser240/244 (MesoScale Discovery K150DGD-3) or an antibody to pAkt Ser 473 (MesoScale Discovery K151DGD-3). Plates have been blocked before by incubation with 150 μl MesoScale Discovery Blocking Solution-A for 1 hour at room temperature followed by washing with 150 μl 1×Tris wash buffer per well. After the transfer of the cell lysate to the MSD plate, the pS6RP (or pAkt) protein is captured on the coated antibody by incubation at room temperature for 1 hour with gentle shaking. After the capture step the plate is washed three times with 150 μl of 1× Tris wash buffer per well. Then 25 μl detection antibody conjugated with a Sulfo-Tag is added and incubated for 1 hour at room temperature with gentle shaking. Subsequently the antibody solution is removed and the plate is washed 3 times with 150 μl 1×Tris wash buffer per well and 150 μl Read buffer is added. The plates are analysed on a MSD 2400 Plate Reader (MesoScale Discovery). Data analysis is performed using nonlinear regression for a sigmoidal dose-response with a variable slope.

PI3K beta (PI3Kb) = target: T4, PI3K beta (PI3Kb) (Homo sapiens, UniProt P42338); experiment: kinobeads assay, PI3K beta; type: binding; settings: Jurkat cell lysate, read-out: Inhibition values (IC50) PI3Kb
T4 construct: Jurkat cells were homogenized in a Potter S homogenizer in lysis buffer; endogenous in cells; host or cells: Jurkat, clone E6-1 (ATCC TIB-152) lysate
Procedure: as §1, §2, §3, §4, §5, §6, §7

PI3K gamma (PI3Kg) = target: T5, PI3K gamma (PI3Kg) (Homo sapiens, UniProt P48736); experiment: kinobeads assay, PI3K gamma; type: binding; settings: Jurkat cell lysate, read-out: Inhibition values (IC50) PI3Kg
T5 construct: Jurkat cells were homogenized in a Potter S homogenizer in lysis buffer; endogenous in cells; host or cells: Jurkat, clone E6-1 (ATCC TIB-152) lysate
Procedure: as §1, §2, §3, §4, §5, §6, §7

PI3K delta (PI3Kd) = target: T6, PI3K delta (PI3Kd) (Homo sapiens, UniProt O00329); experiment: kinobeads assay, PI3K delta; type: binding; settings: Jurkat cell lysate, read-out: Inhibition values (IC50) PI3Kd
T6 construct: Jurkat cells were homogenized in a Potter S homogenizer in lysis buffer; endogenous in cells; host or cells: Jurkat, clone E6-1 (ATCC TIB-152) lysate
Procedure: as §1, §2, §3, §4, §5, §6, §7

T6 sequence (O00329 whole entry): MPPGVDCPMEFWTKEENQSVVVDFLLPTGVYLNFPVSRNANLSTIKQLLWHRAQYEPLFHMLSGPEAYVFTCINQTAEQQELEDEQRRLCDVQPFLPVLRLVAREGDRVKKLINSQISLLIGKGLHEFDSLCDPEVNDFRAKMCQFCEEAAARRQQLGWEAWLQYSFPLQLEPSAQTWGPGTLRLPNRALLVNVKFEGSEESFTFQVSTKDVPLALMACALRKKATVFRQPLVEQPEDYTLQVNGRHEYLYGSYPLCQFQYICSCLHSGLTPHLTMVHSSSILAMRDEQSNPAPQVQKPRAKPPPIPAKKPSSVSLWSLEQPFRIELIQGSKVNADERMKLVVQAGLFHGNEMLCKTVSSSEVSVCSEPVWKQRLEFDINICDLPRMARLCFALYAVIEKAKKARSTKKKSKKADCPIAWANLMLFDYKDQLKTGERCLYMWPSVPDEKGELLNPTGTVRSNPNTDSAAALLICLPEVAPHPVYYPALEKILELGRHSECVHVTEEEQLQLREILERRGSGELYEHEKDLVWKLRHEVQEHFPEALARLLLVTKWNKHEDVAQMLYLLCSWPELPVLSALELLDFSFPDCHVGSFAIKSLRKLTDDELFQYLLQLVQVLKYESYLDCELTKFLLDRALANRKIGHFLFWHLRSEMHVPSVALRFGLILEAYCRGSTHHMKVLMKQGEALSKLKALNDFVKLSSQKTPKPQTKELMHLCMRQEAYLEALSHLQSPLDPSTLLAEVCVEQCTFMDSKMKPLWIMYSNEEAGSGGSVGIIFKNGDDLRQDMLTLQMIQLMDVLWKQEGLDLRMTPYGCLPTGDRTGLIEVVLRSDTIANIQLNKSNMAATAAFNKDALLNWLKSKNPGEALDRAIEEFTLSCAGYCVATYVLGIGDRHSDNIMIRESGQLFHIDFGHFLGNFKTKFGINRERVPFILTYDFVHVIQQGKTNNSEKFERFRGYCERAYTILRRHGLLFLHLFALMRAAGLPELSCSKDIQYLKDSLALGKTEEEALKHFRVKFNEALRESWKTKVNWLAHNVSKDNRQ
T6 sequence (P27986 whole entry partner): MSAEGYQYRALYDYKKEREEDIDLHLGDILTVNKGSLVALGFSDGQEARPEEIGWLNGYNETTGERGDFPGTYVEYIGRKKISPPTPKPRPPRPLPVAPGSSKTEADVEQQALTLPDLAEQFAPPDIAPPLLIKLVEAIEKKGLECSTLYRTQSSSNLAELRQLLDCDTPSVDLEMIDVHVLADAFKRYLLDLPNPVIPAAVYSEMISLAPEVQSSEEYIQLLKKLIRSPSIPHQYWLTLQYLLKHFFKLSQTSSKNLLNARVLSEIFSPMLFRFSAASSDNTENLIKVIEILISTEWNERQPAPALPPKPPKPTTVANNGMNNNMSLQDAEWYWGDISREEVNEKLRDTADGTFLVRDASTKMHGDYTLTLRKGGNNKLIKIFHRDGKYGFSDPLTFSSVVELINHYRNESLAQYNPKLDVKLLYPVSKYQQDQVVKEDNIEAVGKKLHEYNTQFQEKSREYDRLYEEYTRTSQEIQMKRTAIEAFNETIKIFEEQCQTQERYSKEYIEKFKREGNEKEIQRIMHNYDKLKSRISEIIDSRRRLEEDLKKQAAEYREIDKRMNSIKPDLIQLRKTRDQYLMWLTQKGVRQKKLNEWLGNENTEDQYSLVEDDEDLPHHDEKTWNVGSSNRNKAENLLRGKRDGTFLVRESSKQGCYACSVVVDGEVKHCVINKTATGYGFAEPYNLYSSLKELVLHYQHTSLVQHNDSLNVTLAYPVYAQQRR
T5 sequence (P48736 whole entry): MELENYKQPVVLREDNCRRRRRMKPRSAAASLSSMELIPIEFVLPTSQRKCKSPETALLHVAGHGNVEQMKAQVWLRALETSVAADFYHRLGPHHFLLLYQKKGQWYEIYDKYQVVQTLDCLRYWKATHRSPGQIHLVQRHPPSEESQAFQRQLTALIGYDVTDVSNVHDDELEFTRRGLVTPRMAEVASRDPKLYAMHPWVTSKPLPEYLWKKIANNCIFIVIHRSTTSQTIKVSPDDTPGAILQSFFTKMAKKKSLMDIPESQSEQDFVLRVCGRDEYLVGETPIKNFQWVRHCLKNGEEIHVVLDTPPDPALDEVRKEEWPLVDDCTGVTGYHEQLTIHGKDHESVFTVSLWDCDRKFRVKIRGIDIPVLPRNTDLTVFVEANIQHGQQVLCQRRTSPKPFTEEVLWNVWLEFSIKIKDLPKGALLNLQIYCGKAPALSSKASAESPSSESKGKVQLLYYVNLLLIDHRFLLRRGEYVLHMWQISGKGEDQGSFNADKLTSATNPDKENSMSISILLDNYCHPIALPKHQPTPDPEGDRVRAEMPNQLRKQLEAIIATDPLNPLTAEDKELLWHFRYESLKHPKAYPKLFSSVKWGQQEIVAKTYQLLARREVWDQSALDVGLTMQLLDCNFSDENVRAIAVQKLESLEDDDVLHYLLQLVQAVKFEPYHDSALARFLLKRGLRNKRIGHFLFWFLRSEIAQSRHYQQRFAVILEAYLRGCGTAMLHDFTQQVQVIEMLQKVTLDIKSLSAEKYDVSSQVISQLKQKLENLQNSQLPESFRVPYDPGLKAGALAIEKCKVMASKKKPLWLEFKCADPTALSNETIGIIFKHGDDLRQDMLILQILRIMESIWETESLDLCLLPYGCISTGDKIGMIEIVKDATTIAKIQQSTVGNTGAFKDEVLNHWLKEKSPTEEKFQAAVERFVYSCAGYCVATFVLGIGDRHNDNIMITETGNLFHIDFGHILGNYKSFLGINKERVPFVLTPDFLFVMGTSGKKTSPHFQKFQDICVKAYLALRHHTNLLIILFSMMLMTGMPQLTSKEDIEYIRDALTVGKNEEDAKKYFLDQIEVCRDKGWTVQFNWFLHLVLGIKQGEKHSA
T2 sequence (P42336 whole entry): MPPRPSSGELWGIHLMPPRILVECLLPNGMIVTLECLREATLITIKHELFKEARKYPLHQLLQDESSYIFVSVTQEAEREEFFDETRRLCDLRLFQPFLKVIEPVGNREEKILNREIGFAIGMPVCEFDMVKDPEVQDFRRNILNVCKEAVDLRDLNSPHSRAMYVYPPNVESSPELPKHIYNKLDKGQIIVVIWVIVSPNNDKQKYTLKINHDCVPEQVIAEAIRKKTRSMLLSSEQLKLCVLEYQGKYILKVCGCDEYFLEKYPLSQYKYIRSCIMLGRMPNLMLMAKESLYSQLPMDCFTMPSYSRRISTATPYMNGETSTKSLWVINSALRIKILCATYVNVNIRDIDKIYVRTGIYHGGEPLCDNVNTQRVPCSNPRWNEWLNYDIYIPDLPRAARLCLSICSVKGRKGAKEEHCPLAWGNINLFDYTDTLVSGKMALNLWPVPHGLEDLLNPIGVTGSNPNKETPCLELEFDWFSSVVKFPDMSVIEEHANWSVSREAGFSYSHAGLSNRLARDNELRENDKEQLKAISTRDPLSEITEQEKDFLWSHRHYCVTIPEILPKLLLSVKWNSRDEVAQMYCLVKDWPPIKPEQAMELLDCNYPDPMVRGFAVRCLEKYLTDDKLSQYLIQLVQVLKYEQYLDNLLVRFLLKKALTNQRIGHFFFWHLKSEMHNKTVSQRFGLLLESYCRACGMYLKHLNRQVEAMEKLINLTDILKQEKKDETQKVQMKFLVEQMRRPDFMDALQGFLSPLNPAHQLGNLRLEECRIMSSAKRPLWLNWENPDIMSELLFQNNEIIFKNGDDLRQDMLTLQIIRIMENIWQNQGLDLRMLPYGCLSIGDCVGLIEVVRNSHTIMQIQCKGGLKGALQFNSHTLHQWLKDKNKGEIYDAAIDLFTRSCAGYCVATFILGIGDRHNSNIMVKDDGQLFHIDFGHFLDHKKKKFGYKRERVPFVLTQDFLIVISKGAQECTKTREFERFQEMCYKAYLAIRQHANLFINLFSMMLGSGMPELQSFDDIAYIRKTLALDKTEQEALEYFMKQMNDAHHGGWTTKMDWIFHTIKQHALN
T2 sequence (P27986 whole entry partner): as the sequence (P27986 whole entry partner) above
T4 sequence (P42338 whole entry): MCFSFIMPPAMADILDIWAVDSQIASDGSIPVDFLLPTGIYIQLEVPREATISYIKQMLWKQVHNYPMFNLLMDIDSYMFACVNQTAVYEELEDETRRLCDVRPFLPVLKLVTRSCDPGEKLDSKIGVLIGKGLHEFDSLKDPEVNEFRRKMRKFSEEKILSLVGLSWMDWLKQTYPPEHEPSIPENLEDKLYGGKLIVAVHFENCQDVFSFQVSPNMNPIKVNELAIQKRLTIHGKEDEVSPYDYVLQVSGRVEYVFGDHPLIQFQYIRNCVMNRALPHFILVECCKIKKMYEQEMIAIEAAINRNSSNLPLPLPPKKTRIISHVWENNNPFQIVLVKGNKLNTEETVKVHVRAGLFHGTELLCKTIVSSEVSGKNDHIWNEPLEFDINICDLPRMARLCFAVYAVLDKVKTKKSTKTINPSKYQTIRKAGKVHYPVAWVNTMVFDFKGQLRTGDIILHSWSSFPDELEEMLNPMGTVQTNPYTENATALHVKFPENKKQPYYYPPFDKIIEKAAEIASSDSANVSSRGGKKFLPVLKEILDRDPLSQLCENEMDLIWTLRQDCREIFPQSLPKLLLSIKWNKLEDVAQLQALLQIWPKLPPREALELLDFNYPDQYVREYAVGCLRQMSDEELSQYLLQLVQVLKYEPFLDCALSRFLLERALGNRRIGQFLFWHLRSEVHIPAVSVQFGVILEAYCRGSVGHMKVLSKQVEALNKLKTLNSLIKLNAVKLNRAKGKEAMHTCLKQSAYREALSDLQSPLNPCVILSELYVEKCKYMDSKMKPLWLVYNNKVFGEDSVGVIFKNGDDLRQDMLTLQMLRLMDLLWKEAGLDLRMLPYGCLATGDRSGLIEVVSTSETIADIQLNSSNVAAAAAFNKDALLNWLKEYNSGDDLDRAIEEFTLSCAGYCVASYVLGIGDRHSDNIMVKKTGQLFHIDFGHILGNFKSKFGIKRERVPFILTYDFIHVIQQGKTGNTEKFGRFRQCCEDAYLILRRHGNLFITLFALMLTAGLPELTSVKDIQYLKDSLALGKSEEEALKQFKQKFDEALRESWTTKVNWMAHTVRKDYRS
T4 sequence (P27986 whole entry partner): as the sequence (P27986 whole entry partner) above

Compound	IC50 (mTOR)	IC50 (PI3K alpha (PI3Kα))	IC50 [1]	IC50 [2]	IC50 (PI3K beta (PI3Kb))	IC50 (PI3K gamma (PI3Kg))	IC50 (PI3K delta (PI3Kd))
C[C@H]1COCCN1c1nc(-c2ccc(NC(=O)NCCC(N)C(F)(F)F)cc2)nc(-c2ccccc2S(C)(=O)=O)n1 (stereo partly drawn) [Example 37, 1-(3-amino-4,4,4-trifluorobutyl)-3-(4-(4-((S)-3-methylmorpholino)-6-(2-(methylsulfonyl)phenyl)-1,3,5-triazin-2-yl)phenyl)urea]	1 to 10 µM	> 10 µM					
C[C@H]1COCCN1c1nc(-c2ccc(NC(=O)NCC(F)F)cc2)nc(-c2cc(F)ccc2S(C)(=O)=O)n1 [Example 43, (S)-1-(2,2-difluoroethyl)-3-(4-(4-(5-fluoro-2-(methylsulfonyl)phenyl)-6-(3-methylmorpholino)-1,3,5-triazin-2-yl)phenyl)urea]	0.1 to 1 µM	> 10 µM	> 10 µM	< 0.1 µM			
CNC(=O)Nc1ccc(-c2nc(-c3cccnc3S(C)(=O)=O)nc(N3CCOC[C@@H]3C)n2)cc1 [Example 41, (S)-1-methyl-3-(4-(4-(3-methylmorpholino)-6-(2-(methylsulfonyl)pyridin-3-yl)-1,3,5-triazin-2-yl)phenyl)urea]	< 0.1 µM	1 to 10 µM	> 10 µM	< 0.1 µM			
CCNC(=O)Nc1ccc(-c2nc(-c3cccnc3S(C)(=O)=O)nc(N3CCOC[C@@H]3C)n2)cc1 [Example 40, (S)-1-ethyl-3-(4-(4-(3-methylmorpholino)-6-(2-(methylsulfonyl)pyridin-3-yl)-1,3,5-triazin-2-yl)phenyl)ure]	< 0.1 µM	1 to 10 µM	> 10 µM	< 0.1 µM			
C[C@H]1COCCN1c1nc(-c2ccc(NC(=O)NCCF)cc2)nc(-c2cc(F)ccc2S(C)(=O)=O)n1 [Example 44, (S)-1-(4-(4-(5-fluoro-2-(methylsulfonyl)phenyl)-6-(3-methylmorpholino)-1,3,5-triazin-2-yl)phenyl)-3-(2-fluoroethyl)urea]	0.1 to 1 µM	> 10 µM	> 10 µM	< 0.1 µM			
CCNC(=O)Nc1ccc(-c2nc(-c3cc(F)ccc3S(C)(=O)=O)nc(N3CCOC[C@@H]3C)n2)cc1 [Example 42, (S)-1-ethyl-3-(4-(4-(5-fluoro-2-(methylsulfonyl)phenyl)-6-(3-methylmorpholino)-1,3,5-triazin-2-yl)phenyl)urea]	0.1 to 1 µM	> 10 µM	> 10 µM	< 0.1 µM			
C[C@H]1COCCN1c1nc(-c2ccc(NC(=O)NCC(C)(C)C)cc2)nc(-c2ccccc2S(C)(=O)=O)n1 [Example 30, (S)-1-(4-(4-(3-methylmorpholino)-6-(2-(methylsulfonyl)phenyl)-1,3,5-triazin-2-yl)phenyl)-3-neopentylurea]	1 to 10 µM	> 10 µM	> 10 µM		> 10 µM	> 10 µM	> 10 µM
C[C@H]1COCCN1c1nc(-c2ccc(NC(=O)NCCC(F)(F)F)cc2)nc(-c2ccccc2S(C)(=O)=O)n1 [Example 31, (S)-1-(4-(4-(3-methylmorpholino)-6-(2-(methylsulfonyl)phenyl)-1,3,5-triazin-2-yl)phenyl)-3-(3,3,3-trifluoropropyl)urea]	1 to 10 µM	> 10 µM	> 10 µM		> 10 µM	> 10 µM	> 10 µM
C[C@H]1COCCN1c1nc(-c2ccc(NC(=O)NCCC(O)C(F)(F)F)cc2)nc(-c2ccccc2S(C)(=O)=O)n1 (stereo partly drawn) [Example 38, 1-(4-(4-((S)-3-methylmorpholino)-6-(2-(methylsulfonyl)phenyl)-1,3,5-triazin-2-yl)phenyl)-3-(4,4,4-trifluoro-3-hydroxybutyl)urea]	> 10 µM	> 10 µM	> 10 µM		> 10 µM	> 10 µM	> 10 µM
CNC(=O)Nc1ccc(-c2nc(-c3cc(F)ccc3S(C)(=O)=O)nc(N3CCOC[C@@H]3C)n2)cc1 [Example 2, (S)-1-(4-(4-(5-fluoro-2-(methylsulfonyl)phenyl)-6-(3-methylmorpholino)-1,3,5-triazin-2-yl)phenyl)-3-methylurea]	0.1 to 1 µM	> 10 µM	> 10 µM	< 0.1 µM			
CS(=O)(=O)c1ccc(F)cc1-c1nc(-c2ccc(NC(=O)NC3CC3)cc2)nc(N2CC3CCC(C2)O3)n1 [Example 39, 1-(4-(4-(8-oxa-3-azabicyclo[3.2.1]octan-3-yl)-6-(5-fluoro-2-(methylsulfonyl)phenyl)-1,3,5-triazin-2-yl)phenyl)-3-cyclopropylurea]	1 to 10 µM	> 10 µM		0.1 to 1 µM			

From patent publication US9175011B2, “Morpholino substituted urea or carbamate derivatives as MTOR inhibitors” (CELLZOME LIMITED, priority 2011, dated 2015)
